Like-named read-outs stand apart in the source and are kept apart here.
Assays:
D2LR [1] = target: T1, D2LR (Homo sapiens, UniProt P14416); assay type: cell-based; conditions: GPA GαoA assay
T1 construct: expressed in transfected cells; host or cells: HEK 293T, transient

D2LR [2] = target: T1, D2LR; assay type: cell-based; conditions: miniG recruitment assay
5-HT1A [3] = target: T2, 5-HT1A (Homo sapiens, UniProt P08908); test: 5-HT1A [35S]GTPγS, agonist; assay type: biochemical
T2 sequence (P08908 1-422): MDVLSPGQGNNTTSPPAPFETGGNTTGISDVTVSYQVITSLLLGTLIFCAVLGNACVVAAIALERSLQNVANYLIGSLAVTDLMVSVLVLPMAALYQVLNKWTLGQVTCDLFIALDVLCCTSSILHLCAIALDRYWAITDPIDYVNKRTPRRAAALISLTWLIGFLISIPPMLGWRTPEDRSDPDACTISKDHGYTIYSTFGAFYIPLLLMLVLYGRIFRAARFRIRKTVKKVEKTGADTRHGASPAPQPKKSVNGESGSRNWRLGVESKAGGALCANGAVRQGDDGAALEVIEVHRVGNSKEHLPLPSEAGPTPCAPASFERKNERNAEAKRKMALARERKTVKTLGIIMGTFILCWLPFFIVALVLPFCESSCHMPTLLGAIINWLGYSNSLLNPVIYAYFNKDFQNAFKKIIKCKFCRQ

5-HT2C [4] = target: T3, 5-HT2C (Homo sapiens, UniProt P28335); test: 5-HT2C IP-1, agonist; assay type: cell-based
T3 sequence (P28335 33-458): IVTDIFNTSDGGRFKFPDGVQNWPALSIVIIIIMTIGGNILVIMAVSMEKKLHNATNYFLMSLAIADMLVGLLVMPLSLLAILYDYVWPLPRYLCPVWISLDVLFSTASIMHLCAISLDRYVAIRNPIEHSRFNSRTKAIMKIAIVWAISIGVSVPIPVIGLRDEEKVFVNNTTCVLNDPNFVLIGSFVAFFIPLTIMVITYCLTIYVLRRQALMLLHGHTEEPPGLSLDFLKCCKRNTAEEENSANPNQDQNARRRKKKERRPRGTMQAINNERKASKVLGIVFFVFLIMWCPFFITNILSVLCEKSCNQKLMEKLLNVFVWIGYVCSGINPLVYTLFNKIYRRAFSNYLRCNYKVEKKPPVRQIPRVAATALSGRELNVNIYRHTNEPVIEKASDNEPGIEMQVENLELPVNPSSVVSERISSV

5-HT2C [5] = target: T3, 5-HT2C; test: 5-HT2C IP-1, antagonist; assay type: cell-based
[6] = test system: cocaine self-administration in rats; test: cocaine self-administration under progressive ratio (PR) break-point; assay type: in vivo, Long-Evans rats; conditions: i.p. 30 min prior
5-HT2A [7] = target: T4, 5-HT2A (Homo sapiens, UniProt P28223); test: 5-HT2A IP-1, agonist; assay type: cell-based; conditions: agonist mode
5-HT2B [8] = target: T5, 5-HT2B (Homo sapiens, UniProt P41595); test: 5-HT2B IP-1, agonist; assay type: cell-based; conditions: agonist mode
5-HT2A [9] = target: T4, 5-HT2A; assay type: cell-based; conditions: antagonist mode
5-HT2B [10] = target: T5, 5-HT2B; test: 5-HT2B IP-1, antagonist; assay type: cell-based; conditions: for 5-HT2B IP-1 Emax ± SEM: antagonist mode
D4R = target: T6, D4R (Homo sapiens, UniProt P21917); test: D4R off-target binding, [3H]-spiperone; conditions: read-out: D4R Ki ± SEM
T6 sequence (P21917 1-419): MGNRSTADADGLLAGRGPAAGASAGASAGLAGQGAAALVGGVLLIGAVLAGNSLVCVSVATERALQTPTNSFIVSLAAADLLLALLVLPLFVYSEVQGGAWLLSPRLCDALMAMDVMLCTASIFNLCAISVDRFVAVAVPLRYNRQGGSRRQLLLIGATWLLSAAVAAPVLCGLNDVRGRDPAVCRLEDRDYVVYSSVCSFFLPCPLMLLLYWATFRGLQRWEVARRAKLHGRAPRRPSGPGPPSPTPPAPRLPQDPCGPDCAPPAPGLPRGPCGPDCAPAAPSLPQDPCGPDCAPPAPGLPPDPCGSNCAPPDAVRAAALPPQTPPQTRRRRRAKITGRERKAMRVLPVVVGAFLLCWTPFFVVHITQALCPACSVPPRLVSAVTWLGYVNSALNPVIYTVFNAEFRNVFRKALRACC

5-HT1A [11] = target: T2, 5-HT1A; test: 5-HT1A off-target binding, [3H]-8-OH-DPAT; conditions: read-out: 5-HT1A Ki ± SEM
5-HT2B [12] = target: T5, 5-HT2B; test: 5-HT2B off-target binding, [3H]5-HT; conditions: read-out: 5-HT2B Ki ± SEM

T5 sequence (P41595 whole entry, species assumed): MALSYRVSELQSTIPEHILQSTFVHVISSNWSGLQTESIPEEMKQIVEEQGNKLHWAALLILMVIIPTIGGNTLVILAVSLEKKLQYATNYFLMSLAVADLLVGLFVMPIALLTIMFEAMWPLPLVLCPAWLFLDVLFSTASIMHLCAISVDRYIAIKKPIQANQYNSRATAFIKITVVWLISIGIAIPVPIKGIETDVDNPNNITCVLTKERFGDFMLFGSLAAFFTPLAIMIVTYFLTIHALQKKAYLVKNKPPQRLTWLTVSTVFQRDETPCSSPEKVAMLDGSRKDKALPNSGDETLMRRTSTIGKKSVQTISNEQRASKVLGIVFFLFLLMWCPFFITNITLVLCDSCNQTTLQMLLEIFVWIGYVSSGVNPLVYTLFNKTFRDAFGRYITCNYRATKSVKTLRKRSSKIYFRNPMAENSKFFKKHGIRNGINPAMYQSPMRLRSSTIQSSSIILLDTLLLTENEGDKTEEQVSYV
T1 sequence (P14416 whole entry): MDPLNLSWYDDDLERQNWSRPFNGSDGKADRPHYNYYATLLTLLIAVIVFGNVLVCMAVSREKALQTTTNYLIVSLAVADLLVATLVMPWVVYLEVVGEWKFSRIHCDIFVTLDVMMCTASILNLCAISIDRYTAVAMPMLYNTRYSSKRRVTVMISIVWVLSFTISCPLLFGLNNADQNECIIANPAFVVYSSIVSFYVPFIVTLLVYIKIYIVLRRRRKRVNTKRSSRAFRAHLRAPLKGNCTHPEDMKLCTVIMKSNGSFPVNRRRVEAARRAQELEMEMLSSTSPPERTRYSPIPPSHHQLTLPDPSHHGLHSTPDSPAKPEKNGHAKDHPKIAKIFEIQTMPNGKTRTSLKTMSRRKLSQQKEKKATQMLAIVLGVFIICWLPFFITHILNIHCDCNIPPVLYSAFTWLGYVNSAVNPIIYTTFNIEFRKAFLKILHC
T4 sequence (P28223 whole entry, species assumed): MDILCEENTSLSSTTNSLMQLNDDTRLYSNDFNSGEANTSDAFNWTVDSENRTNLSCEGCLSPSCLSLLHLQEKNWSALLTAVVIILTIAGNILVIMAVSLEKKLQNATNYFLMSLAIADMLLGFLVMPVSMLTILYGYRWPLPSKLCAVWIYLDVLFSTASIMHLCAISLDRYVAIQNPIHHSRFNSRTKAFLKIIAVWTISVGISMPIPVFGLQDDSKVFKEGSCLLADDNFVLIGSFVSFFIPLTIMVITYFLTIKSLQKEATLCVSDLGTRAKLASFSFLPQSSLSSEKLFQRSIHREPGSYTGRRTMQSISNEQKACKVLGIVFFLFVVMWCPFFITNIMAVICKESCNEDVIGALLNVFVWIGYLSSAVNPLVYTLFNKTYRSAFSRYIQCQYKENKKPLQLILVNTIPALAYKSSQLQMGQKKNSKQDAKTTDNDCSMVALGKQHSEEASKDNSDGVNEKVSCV

Row | SMILES | D2R activity in words, GPA assay (D2LR [1]) | D2R activity in words, miniG assay (D2LR [2]) | 5-HT1A [35S]GTPγS Emax ± SEM (5-HT1A [3]; agonist mode) | 5-HT2C IP-1 Emax ± SEM (5-HT2C [4]; agonist mode) | EC50 (5-HT2C [4]; agonist mode, read-out: 5-HT2C IP-1 EC50 ± SEM) | IC50 (5-HT2C [5]) | 5-HT2C IP-1 Emax ± SEM (5-HT2C [5]; antagonist mode) | effect on lever pressing / PR break-point for cocaine [6] | 5-HT2A IP-1 Emax ± SEM (5-HT2A [7]) | 5-HT2B IP-1 Emax ± SEM (5-HT2B [8]) | EC50 (5-HT2C [4]) | 5-HT2A IP-1 Emax ± SEM (5-HT2A [9]) | 5-HT2B IP-1 Emax ± SEM (5-HT2B [10]) | Ki (D4R) | Ki (5-HT1A [11]) | Ki (5-HT2B [12]) | EC50 (5-HT1A [3]) | EC50 (5-HT2B [8]; read-out: 5-HT2B IP-1 EC50 ± SEM) | IC50 (5-HT2B [10])
1 | CN(C)C(=O)N[C@H]1CC[C@H](CCN2CCN(c3cccc(Cl)c3Cl)CC2)CC1 [Compound 6a, 3-(trans-4-(2-(4-(2,3-Dichlorophenyl)piperazin-1-yl)ethyl)cyclohexyl)-1,1-dimethylurea] | maximal effect similar to quinpirole | D2R partial agonists | 89.6 ± 3.6% | 49.2 ± 6.6% | 215 ± 22 nM | > 5000 nM | 9.2 ± 2.7% | reduce the reinforcing efficacy of cocaine | – | – | – | – | – | – | – | – | – | – | –
2 | CCc1cccc(N2CCN(CC[C@H]3CC[C@H](NC(=O)CCOC)CC3)CC2)c1Cl [Compound 13b, N-(trans-4-(2-(4-(2-Chloro-3-ethylphenyl)piperazin-1-yl)ethyl)cyclohexyl)-3-methoxypropanamide] | – | – | – | – | – | – | – | – | 25.9 ± 1.9% | <1% | 43.5 ± 5.3 nM | 62.7 ± 5.8% | 100 ± 0% | – | – | – | – | – | –
3 | COCCC(=O)N[C@H]1CC[C@H](CCN2CCN(c3cccc(OC)c3F)CC2)CC1 [Compound 13c, N-(trans-4-(2-(4-(2-Fluoro-3-methoxyphenyl)piperazin-1-yl)ethyl)cyclohexyl)-3-methoxypropanamide] | full agonists | full agonists | – | – | – | – | – | – | – | <1% | – | – | 82 ± 18% | 734 ± 16 nM | 69.9 ± 1.7 nM | 29.6 ± 9.5 nM | 121 ± 10 nM | > 10000 nM | 519 ± 81 nM

— patent US20260356809A1 (The United States of America, as represented by the …, priority 2022, published 2026)
